Where a SMILES comes first, the peptide text is derived from it. Bridges are numbered along the chain shown (N, C = ends). [ ]: non-standard residue; d: D form. The star is where a group is joined. Ileψ(thiazoline)Cys = CC[C@H](C)[C@H](N)C1=N[C@H](C(=O)*)CS1; dOrn = NCCC[C@@H](N)C(=O)O
Columns and labels:
[1] = test system: bone marrow-derived mast cells (BMMCs); test: cytokine production from IgE/antigen-activated bone marrow-derived mast cells (ELISA); format: cell-based, BALB/c mice; conditions: for activation of mast cells: DNP-IgE priming, DNP-BSA challenge; for production of mast cell cytokines such as TNF-a, IL-6, and IL-13: DNP-IgE/DNP-BSA
Description: In this study, bone marrow-derived mast cells (BMMCs) were treated with the known PDI inhibitors bacitracin and rutin, and mast cell activation was assessed. BMMCs were generated from BALB/c mice and grown in 10 ng/ml IL-3 and 10 ng/ml stem cell factor (SCF) for 4-8 weeks. One million BMMCs in triplicates were cultured with various concentrations of the PDI inhibitors Bacitracin (Bac) and Rutin (RH) for 1 day or 7 days. Some cells were activated by priming cells with DNP-IgE (Dinitrophenyl IgE) antibodies and challenging with DNP-BSA (dinitrophenyl-bovine serum albumin). Cytokine levels (IL-4, IL-13, TNF-alpha, and IL-6 in FIGS. 1A-1D, respectively) were assessed in the supernatants 24 hr later by ELISA. FIG. 1A-1D show treatment of mast cells with PDI inhibitor Bacitracin or Rutin inhibits the activation of mast cells and the production of mast cell cytokines such as TNF-a, IL-6, and IL-13. In this study, BMMCs were treated with the known PDI inhibitor PACMA-31, and mast cell activation was assessed. Bone marrow derived mast cells (BMMCs) were generated from BALB/c mice and grown in 10 ng/ml IL-3 and 10 ng/ml SCF for 4-8 weeks. 1 million BMMCs in triplicates were cultured with 30 μM PACMA-31 (Sigma-Aldrich) for 30 minutes. Some cells were activated by priming cells with DNP-IgE antibodies and challenging with DNP-BSA. Cytokine levels (IL-13, TNF-alpha, and IL-6 in FIGS. 2A-2C) were assessed in the supernatants 6 hrs later by ELISA. FIG. 2A-2C show treatment of mast cells with the specific PDI inhibitor PACMA-31 inhibits the activation of mast cells and the production of mast cell cytokines such as TNF-a, IL-6, and IL-13.

[2] = test system: ovalbumin-induced food allergy; test: mouse model of ovalbumin-induced, mast cell-mediated food allergy; format: in vivo, BALB/c mice
Description: In this study, wild-type (Wt) mice were sensitized and challenged with ovalbumin and treated with PACMA-31 to determine whether PDI inhibition can modulate the development of food allergy. BALB/c mice were sensitized intraperitoneally (i.p.) with 50 μg ovalbumin (OVA) and 1 mg alum on day zero (d0) and d14. On day 28, some groups of mice were challenged intragastrically with 50 mg OVA once a day on 6 alternating days. Some groups of mice were treated with 300 μg PACMA-31 (P-31) intragastrically daily starting d27. […] The development of allergic diarrhea in this model is dependent on mast cell activation. […] In FIGS. 3A-3F, Wt Cont=wild-type, Control; Wt OVA=wild-type, ovalbumin; Wt+P31 Cont=wild-type, PACMA-31, Control; and Wt+P31 OVA=wild-type, PACMA-31, ovalbumin. FIG. 3A-3F show oral treatment of mice undergoing food allergy with PACMA-31 results in attenuation of the allergic response including mast cell protease levels which indicate mast cell activation (mMCP-1), OVA-IgE levels, and Th2 cytokine levels.

[3] = known property; cited from earlier work
[4] = wild-type mice, ovalbumin-induced food allergy

Structure (SMILES) | activation of mast cells ([1]; BMMCs cultured with various concentrations for 1 day or 7 days, FIGS. 1A-1D) | production of mast cell cytokines such as TNF-a, IL-6, and IL-13 ([1]; BMMCs cultured with various concentrations for 1 day or 7 days, supernatants 24 hr later by ELISA, FIGS. 1A-1D) | activation of mast cells ([1]; BMMCs cultured with 30 μM for 30 minutes, FIGS. 2A-2C) | production of mast cell cytokines such as TNF-a, IL-6, and IL-13 ([1]; BMMCs cultured with 30 μM for 30 minutes, supernatants 6 hrs later by ELISA, FIGS. 2A-2C) | mast cell protease levels which indicate mast cell activation (serum mMCP-1) ([2]; 300 μg intragastrically daily from d27, OVA-sensitized and challenged mice, FIG. 3A) | serum OVA-IgE levels ([2]; 300 μg intragastrically daily from d27, OVA-sensitized and challenged mice, FIG. 3B) | Th2 cytokine levels in supernatants of spleen cells restimulated with OVA ([2]; 300 μg intragastrically daily from d27, OVA-sensitized and challenged mice, FIGS. 3C-3F) | allergen-specific IgE [2, 4] | development of food allergy symptoms [2, 4] | mast cell activation [2, 4] | allergic diarrhea ([2]; wild-type mice, ovalbumin-induced food allergy, observed one hour after 6th challenge) | oral bioavailability [3]
CC[C@H](C)[C@H](N)C1=N[C@H](C(=O)N[C@@H](CC(C)C)C(=O)N[C@H](CCC(=O)O)C(=O)N[C@H](C(=O)N[C@H]2CCCCNC(=O)[C@H](CC(N)=O)NC(=O)[C@@H](CC(=O)O)NC(=O)[C@H](Cc3cnc[nH]3)NC(=O)[C@@H](Cc3ccccc3)NC(=O)[C@H]([C@@H](C)CC)NC(=O)[C@@H](CCCN)NC2=O)[C@@H](C)CC)CS1 [Bacitracin, bacitracin] ({Ileψ(thiazoline)Cys}-L[dE]IK[dOrn]I[dF]H[dD]N; lactam 4-C) | inhibits | inhibits |  |  |  |  |  |  |  |  |  | 
C#CC(=O)N(c1ccc(OC)cc1OC)C(C(=O)NCC(=O)OCC)c1cccs1 (stereo not drawn) [PACMA-31, N-(2,4-dimethoxyphenyl)-N-(1-oxo-2-propyn-1-yl)-2-(2-thienyl)glycylglycine ethyl ester] |  |  | inhibits | inhibits | attenuation | attenuation | attenuation | decreases | significant attenuation | decreases | decreases | orally bioavailable
